# Test results reported in patent US20130085146A1, “LIPID-DRUG FORMULATIONS AND METHODS FOR TARGETED DELIVERY OF LIPID-DRUG COMPLEXES TO LYMPHOID TISSUES” (priority 2003, published 2013).
# “Also recorded” adds a separate entry of the source. Where a name gives a salt, the structure may show the parent alone. Read-outs that look alike come from different tables or passages of the source.
# Legend:
# [1] = Degree of drug incorporation into lipid-drug complex (size-exclusion chromatography); type: physicochemical; conditions: for Degree of Lipid Association (% total): drug associated with lipid membranes, pH 7.4; for incorporation into lipid-drug complexes (in words): neutral pH
# Procedure: (§1) The mixture was rotor-evaporated under N2 and reduced pressure. Then it was resuspended in sterile phosphate-buffered saline (PBS, pH 7.4), to a final lipid concentration of 50 mM, and homogenized with a probe sonicator until a uniform particle size of about 50 nm to about 80 nm diameter was reached. Sonication is preferably done until sonicated unilamellar vesicles that are stable at their minimum diameter are obtained. […] The size and zeta potential (surface potential at hydrodynamic plane) of the lipid-drug complex was monitored using a Malvern Zetasizer 5000 operating at photon correlation spectroscopy mode and electrophoretic mode, respectively. […] The rest of the preparation procedure remains the same.
# The degree of drug incorporation into the lipid-drug complex was determined by subjecting a small fraction of the preparation to size-exclusion chromatography using a Biogel A-0.5 M media (1×10 cm). […] By analyzing the amount of fraction in the lipid-associated complex, and free form with respect to the total amount loaded onto the column, the percentage of drug association was determined. (Lian, T. and Ho, R. J. Y., Recent trend and progress in liposome drug delivery systems; an invited minireview, J Pharm Sci 90:667-680 [2001]). To determine pH-dependent drug dissociation from the lipid-drug complex, the lipid-drug complex (originally prepared in pH 7.4 and free of unincorporated drug) can be incubated at, e.g., pH 7, 6, 5.5, 5, 4, 3.5 for 30 min. Subsequently, the mixture can be subjected to the degree of drug incorporation analysis described above. For animal studies, the drug-lipid complex formulations were further analyzed for sterility and endotoxin contamination. To ensure sterility and prevent underestimation of endotoxin that binds to lipids, the lipid-drug complex preparations were subjected to a blood agar culture test for 7 days at 37° C. for detection of microbial contamination.
# Subsequently, the % lipid-association was determined by separating free from lipid-associated drug by size-exclusion column chromatography. Data expressed were means of duplicate preparations for indicated pH value.
# [2] = cited from earlier work
# [3] = Particle size of lipid-drug complex (photon correlation spectroscopy); type: physicochemical; conditions: drug associated with lipid membranes, pH 7.4
# Procedure: as §1
smiles,measurement,setting,value
"Cc1c(O)cccc1C(=O)N[C@@H](CSc1ccccc1)[C@H](O)CN1C[C@H]2CCCC[C@H]2C[C@H]1C(=O)NC(C)(C)C (relative stereo) [Nelfinavir, [3S-[2(2S*, 3S*), 3a,4ab,8ab]]-N-(1,1-dimethylethyl)decahydro-2-[2-hydroxy-3-[(3-hydroxy-2-methylbenzoyl)amino]-4-(phenylthio)butyl]-3-isoquinolinecarboxamide mono-methanesulfonate (salt)]",% Associated with lipid-drug nanoparticles: Nelfinavir,[1]; DSPC:mPE-DSPE formulation,100 ± 9.8%
same,Degree of Lipid Association (% total),[1],100.5 ± 9.8 % total
same,incorporation into lipid-drug complexes (in words),[1],incorporate nearly completely; also recorded: high degree of lipid association
same,"solubility in methanol, ethanol, isopropanol and propylene glycol",[2],freely soluble
same,solubility in water,[2]; pH<4,slightly soluble
same,Size in Diameter,[3],123 ± 16 nm
Cc1cccc(C)c1OCC(=O)N[C@@H](Cc1ccccc1)[C@@H](O)C[C@H](Cc1ccccc1)NC(=O)[C@H](C(C)C)N1CCCNC1=O [Lopinavir],% Associated with lipid-drug nanoparticles: Lopinavir,[1]; DSPC:mPE-DSPE formulation,100 ± 0.9%
CC(C)c1nc(CN(C)C(=O)N[C@H](C(=O)N[C@@H](Cc2ccccc2)C[C@H](O)[C@H](Cc2ccccc2)NC(=O)OCc2cncs2)C(C)C)cs1 [Ritonavir],% Associated with lipid-drug nanoparticles: Ritonavir,[1]; DSPC:mPE-DSPE formulation,100 ± 1.0%
"CC(C)(C)NC(=O)[C@@H]1C[C@@H]2CCCC[C@@H]2CN1C[C@@H](O)[C@H](Cc1ccccc1)NC(=O)[C@H](CC(N)=O)NC(=O)c1ccc2ccccc2n1 [Saquinavir, N-tert-butyl-decahydro-2-[2(R)-hydroxy-4-phenyl-3(S)-[[N-(2-quinolylcarbonyl)-L-asparaginyl]-amino]butyl]-(4aS,8aS)-isoquinoline-3 (S)-carboxamide]",% Associated with lipid-drug nanoparticles: Saquinavir,[1]; DSPC:mPE-DSPE formulation,98.9 ± 7.5%
same,Degree of Lipid Association (% total),[1],98.8 ± 7.5 % total
same,incorporation into lipid-drug complexes (in words),[1],incorporate nearly completely; also recorded: high degree of lipid association
same,Size in Diameter,[3],159 ± 36 nm
C[C@H](Cn1cnc2c(N)ncnc21)OCP(=O)(O)O [Tenofovir],incorporation into lipid-drug complexes (in words),[1],quite low efficiency
same,incorporation into lipid-drug complexes (in words),[1]; listed as tenofovir,much lower efficiency
same,solubility in water,[2]; neutral pH,soluble in water
same,solubility in water,"[2]; neutral pH, listed as tenofovir",quite soluble
"CC(C)OC(=O)OCOP(=O)(CO[C@H](C)Cn1cnc2c(N)ncnc21)OCOC(=O)OC(C)C.O=C(O)/C=C/C(=O)O [Viread ®, 9-[(R)-2-[[bis[[(isopropoxycarbonyl)oxy]methoxy]phosphinyl]methoxy]propyl]adenine fumarate (1:1)]",Degree of Lipid Association (% total),[1],4.2 ± 0.7 % total
same,Size in Diameter,[3],60 ± 10 nm
O=C(O)CN(CC(=O)O)Cc1cc2c(cc1O)Oc1cc(O)c(CN(CC(=O)O)CC(=O)O)cc1C21OC(=O)c2ccccc21 [calcein],incorporation into lipid-drug complexes (in words),[1],completely or nearly completely
